From patent US20240360165A1, “INHIBITORS OF CYCLIN DEPENDENT KINASE 7 (CDK7)” (Syros Pharmaceuticals, Inc., priority 2016, published 2024)
Like-named read-outs stand apart in the source and are kept apart here.

Assays:
[1] = biological target: CDK7/Cyclin H/MAT1 complex (Homo sapiens, UniProt P50613); test: CDK7 inhibition assay (Caliper/LabChip EZ Reader kinase assay); assay type: biochemical; details: Table 1, CDK7/Cyclin H/MAT1 6 nM, ATP 2 mM, 35 min at 27° C.
Outline: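 A Perkin Elmer Caliper/LabChip EZ Reader (Waltham, MA) platform served as the basis for this CDK7 kinase inhibition assay. The work was carried out by Biortus Biosciences, located in Jiangyin, Jiangsu Province, P.R. of China. Each CDK studied had its own kinase assay, and compounds were evaluated for their ability to block CDK7 activity.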

[2] = biological target: CDK9/Cyclin T1 complex (Homo sapiens, UniProt P50750); test: CDK9 inhibition assay (Caliper/LabChip EZ Reader kinase assay); assay type: biochemical; details: Table 1, CDK9/Cyclin T1 8 nM, ATP 2 mM, 15 min at 27° C.
Sequence of CDK9/Cyclin T1 complex (P50750 whole entry, species assumed): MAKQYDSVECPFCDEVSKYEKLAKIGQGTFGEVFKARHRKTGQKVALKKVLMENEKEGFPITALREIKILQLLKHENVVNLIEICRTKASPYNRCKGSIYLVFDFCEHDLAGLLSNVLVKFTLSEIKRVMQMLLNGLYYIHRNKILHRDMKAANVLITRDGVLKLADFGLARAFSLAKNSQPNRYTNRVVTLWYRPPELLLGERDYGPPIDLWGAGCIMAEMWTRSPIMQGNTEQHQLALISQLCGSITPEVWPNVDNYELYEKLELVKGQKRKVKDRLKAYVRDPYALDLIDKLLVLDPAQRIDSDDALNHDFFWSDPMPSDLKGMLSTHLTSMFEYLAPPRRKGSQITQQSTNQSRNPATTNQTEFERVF
Sequence of CDK9/Cyclin T1 complex (O60563 whole entry partner, species assumed): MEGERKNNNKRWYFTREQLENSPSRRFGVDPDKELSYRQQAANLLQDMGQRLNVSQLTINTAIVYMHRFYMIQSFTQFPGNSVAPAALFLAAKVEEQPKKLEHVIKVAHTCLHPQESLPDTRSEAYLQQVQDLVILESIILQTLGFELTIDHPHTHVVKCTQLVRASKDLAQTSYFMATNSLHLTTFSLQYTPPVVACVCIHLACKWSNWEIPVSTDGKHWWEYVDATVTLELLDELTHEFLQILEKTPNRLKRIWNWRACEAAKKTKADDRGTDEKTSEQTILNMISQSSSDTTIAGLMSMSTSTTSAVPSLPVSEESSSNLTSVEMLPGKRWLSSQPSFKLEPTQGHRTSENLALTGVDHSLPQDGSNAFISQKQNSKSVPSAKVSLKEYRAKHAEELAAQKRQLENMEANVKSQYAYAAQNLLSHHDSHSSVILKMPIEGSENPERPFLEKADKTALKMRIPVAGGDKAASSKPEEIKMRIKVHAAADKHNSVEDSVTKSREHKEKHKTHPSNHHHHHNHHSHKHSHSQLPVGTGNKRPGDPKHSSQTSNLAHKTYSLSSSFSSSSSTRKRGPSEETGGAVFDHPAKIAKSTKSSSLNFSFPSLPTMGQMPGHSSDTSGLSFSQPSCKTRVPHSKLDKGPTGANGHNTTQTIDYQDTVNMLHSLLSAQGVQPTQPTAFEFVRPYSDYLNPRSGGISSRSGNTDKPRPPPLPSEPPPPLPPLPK
Outline: (§1)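 Activity read as fluorescent peptide conversion on a LabChip EZ Reader. For CDK2/Cyclin E1 (0.5 nM), substrate was 5-FAM-CDK7tide (2 μM) with 2 mM MgCl2; for CDK9/Cyclin T1 (8 nM), 5-FAM-CDK9tide (2 μM) with 10 mM MgCl2.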

[3] = biological target: T1, CDK12 (aa686-1082)/Cyclin K complex (Homo sapiens, UniProt Q9NYV4); test: CDK12 inhibition assay (Caliper/LabChip EZ Reader kinase assay); assay type: biochemical; details: Table 1, CDK12 (aa686-1082)/Cyclin K 50 nM, ATP 2 mM, 3 hr at 27° C.
T1 construct: CDK12 (aa686-1082)/Cyclin K complex
T1 sequence (Q9NYV4 686-1082, species assumed): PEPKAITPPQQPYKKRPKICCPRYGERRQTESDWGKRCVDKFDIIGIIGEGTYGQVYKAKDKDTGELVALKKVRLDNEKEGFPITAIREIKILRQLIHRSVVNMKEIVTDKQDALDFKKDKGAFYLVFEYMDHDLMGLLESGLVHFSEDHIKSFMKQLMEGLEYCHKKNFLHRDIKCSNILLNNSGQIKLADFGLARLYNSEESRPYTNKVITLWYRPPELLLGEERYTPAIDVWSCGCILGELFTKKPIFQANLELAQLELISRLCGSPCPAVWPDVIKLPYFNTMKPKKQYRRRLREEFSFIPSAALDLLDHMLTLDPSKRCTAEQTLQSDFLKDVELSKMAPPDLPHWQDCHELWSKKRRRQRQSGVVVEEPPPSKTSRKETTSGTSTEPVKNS
T1 sequence (O75909 whole entry partner, species assumed, the tested form may be a part): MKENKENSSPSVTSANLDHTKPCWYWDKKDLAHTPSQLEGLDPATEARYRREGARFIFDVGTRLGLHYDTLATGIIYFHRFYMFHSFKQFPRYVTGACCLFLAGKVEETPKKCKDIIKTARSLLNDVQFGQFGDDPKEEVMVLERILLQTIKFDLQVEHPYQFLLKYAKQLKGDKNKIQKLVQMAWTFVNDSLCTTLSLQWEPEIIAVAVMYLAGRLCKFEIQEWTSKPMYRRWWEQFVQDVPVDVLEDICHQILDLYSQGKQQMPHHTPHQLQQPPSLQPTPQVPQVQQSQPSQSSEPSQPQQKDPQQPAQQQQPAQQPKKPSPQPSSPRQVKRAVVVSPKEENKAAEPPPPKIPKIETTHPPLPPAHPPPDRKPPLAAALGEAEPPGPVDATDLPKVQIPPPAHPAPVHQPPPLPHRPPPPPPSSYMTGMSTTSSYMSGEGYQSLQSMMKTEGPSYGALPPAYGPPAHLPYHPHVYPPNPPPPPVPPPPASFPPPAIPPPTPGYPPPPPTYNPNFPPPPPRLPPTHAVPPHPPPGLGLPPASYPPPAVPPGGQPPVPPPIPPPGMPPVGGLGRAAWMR

[4] = biological target: CDK2/Cyclin E1 complex (Homo sapiens, UniProt P24941); test: CDK2 inhibition assay (Caliper/LabChip EZ Reader kinase assay); assay type: biochemical; details: Table 1, CDK2/Cyclin E1 0.5 nM, ATP 2 mM, 35 min at 27° C.
Outline: as §1

[5] = test system: A673 cells; test: Inhibition of proliferation of A673 cells (CyQUANT, 72 hour); assay type: cell-based, human; details: A673 cells, 72 hour, CyQUANT, read-out: Inhibition of Proliferation of A673 Cells (calculated IC50)
Outline: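 Proliferation read-out by CyQUANT after a 72 h exposure, compounds spanning 4 μM–[…] in half-log steps. A673 cells cultured at 37° C under 5% CO2 in DMEM supplemented with 10% FBS plus 1 mM sodium pyruvate.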

[6] = test system: HCC70 cells; test: Inhibition of proliferation of HCC70 cells (CyQUANT Direct Cell Proliferation Assay, 72 hour); assay type: cell-based, human; details: read-out: Inhibition of Proliferation of HCC70 Cells (calculated IC50)
Outline: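 Human triple-negative breast cancer HCC70 cells cultured at 37° C, 5% CO2, with compound for 72 hour. Anti-proliferative effect read by CyQUANT Direct Cell Proliferation Assay. Dinaciclib, a CDK inhibitor analog and triptolide served as positive controls.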

Sequence of CDK7/Cyclin H/MAT1 complex (P50613 whole entry, species assumed): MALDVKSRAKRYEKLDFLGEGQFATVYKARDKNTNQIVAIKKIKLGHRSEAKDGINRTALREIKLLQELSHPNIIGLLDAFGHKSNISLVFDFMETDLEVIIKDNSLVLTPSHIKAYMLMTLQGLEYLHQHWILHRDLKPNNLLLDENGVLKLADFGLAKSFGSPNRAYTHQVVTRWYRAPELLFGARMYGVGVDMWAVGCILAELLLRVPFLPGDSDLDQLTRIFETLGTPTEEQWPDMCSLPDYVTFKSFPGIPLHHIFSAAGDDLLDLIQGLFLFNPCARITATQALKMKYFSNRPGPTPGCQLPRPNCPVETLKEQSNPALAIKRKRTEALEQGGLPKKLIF
Sequence of CDK7/Cyclin H/MAT1 complex (P51946 whole entry partner, species assumed): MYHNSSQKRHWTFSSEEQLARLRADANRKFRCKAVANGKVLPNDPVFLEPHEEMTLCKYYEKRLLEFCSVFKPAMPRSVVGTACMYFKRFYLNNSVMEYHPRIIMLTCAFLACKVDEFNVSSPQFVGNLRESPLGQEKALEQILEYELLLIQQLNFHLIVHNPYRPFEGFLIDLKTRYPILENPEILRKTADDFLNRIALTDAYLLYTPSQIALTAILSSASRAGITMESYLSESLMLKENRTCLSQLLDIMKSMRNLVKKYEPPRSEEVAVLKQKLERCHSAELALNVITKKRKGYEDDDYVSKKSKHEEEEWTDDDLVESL
Sequence of CDK7/Cyclin H/MAT1 complex (P51948 whole entry partner, species assumed): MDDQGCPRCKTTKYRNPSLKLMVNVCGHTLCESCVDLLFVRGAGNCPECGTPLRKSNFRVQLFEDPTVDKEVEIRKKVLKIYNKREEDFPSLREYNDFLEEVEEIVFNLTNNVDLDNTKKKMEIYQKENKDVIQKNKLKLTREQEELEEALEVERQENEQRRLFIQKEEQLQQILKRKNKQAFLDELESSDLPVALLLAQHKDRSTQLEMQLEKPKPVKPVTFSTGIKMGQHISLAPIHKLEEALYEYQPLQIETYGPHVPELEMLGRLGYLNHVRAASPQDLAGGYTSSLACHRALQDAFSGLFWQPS

Row | SMILES | IC50 [1] [nM] | IC50 ([1]; listed as 117) [nM] | IC50 [2] [nM] | IC50 ([2]; listed as 117) [nM] | IC50 [3] [nM] | IC50 ([3]; listed as 117) [nM] | IC50 [4] [nM] | IC50 ([4]; listed as 117) [nM] | IC50 [5] [nM] | IC50 ([6]; Homo sapiens, HCC70, 72 h) [nM] | IC50 ([5]; Homo sapiens, A673, 72 h) [nM] | IC50 ([1]; listed as 108) [nM] | IC50 ([2]; listed as 108) [nM] | IC50 ([3]; listed as 108) [nM] | IC50 ([4]; listed as 108) [nM] | IC50 [6] [nM] | IC50 ([1]; listed as 130) [nM] | IC50 ([3]; listed as 130) [nM]
1 | O=S1(=O)CCn2cc(-c3nc(N[C@H]4CCCNC4)ncc3C(F)(F)F)c3cccc1c32 [Compound 348, (S)-6-(2-(piperidin-3-ylamino)-5-(trifluoromethyl)pyrimidin-4-yl)-2,3-dihydro-[1,4]thiazino[2,3,4-hi]indole 1,1-dioxide] | 20 to 200 | 20 to 200 | > 5000 | 200 to 5000 | > 5000 | 200 to 5000 | > 5000 | 200 to 5000 | 20 to 200 | 100 to 1000 | – | – | – | – | – | – | – | –
2 | CN1CCN(c2cccc3c(-c4nc(N[C@H]5CCCNC5)ncc4C(F)(F)F)c[nH]c23)C1=O [Compound 176] | < 20 | – | 200 to 5000 | – | 200 to 5000 | – | 200 to 5000 | – | – | 100 to 1000 | < 20 | – | – | – | – | – | – | –
3 | COCn1cc(-c2nc(NC3CCCNC3)ncc2C(F)(F)F)c2ccc(C#N)nc21 (stereo not shown) [Compound 283] | 200 to 5000 | – | > 5000 | – | > 5000 | – | > 5000 | – | – | 1000 to 5000 | 200 to 5000 | – | – | – | – | – | – | –
4 | CCc1cnc(NC2CCCNC2)nc1-c1c[nH]c2c(F)cccc12 (stereo not shown) [Compound 144] | < 20 | – | 200 to 5000 | – | 200 to 5000 | – | 200 to 5000 | – | – | 100 to 1000 | 20 to 200 | – | – | – | – | – | – | –
5 | N#Cc1ccc2c(-c3nc(N[C@H]4CCCNC4)ncc3C(F)(F)F)c[nH]c2n1 [Compound 251, 3-[2-[[(3S)-3-piperidyl]amino]-5-(trifluoromethyl)pyrimidin-4-yl]-1H-pyrrolo [2,3-b] pyridine-6-carbonitrile] | < 20 | – | 200 to 5000 | – | 200 to 5000 | – | 200 to 5000 | – | – | < 100 | < 20 | – | – | – | – | – | – | –
6 | Cn1cc(-c2nc(NC3CCCNC3)ncc2C(F)(F)F)c2cccc(C#N)c21 (stereo not shown) [Compound 279] | 20 to 200 | – | > 5000 | – | > 5000 | – | > 5000 | – | – | 1000 to 5000 | 200 to 5000 | – | – | – | – | – | – | –
7 | Cc1n[nH]cc1-c1cccc2c(-c3nc(NC4CCCNC4)ncc3C(F)(F)F)c[nH]c12 (stereo in doubt) [Compound 175] | < 20 | – | 20 to 200 | – | 200 to 5000 | – | 200 to 5000 | – | – | 1000 to 5000 | < 20 | – | – | – | – | – | – | –
8 | CCc1cnc(N[C@H]2CCCNC2)nc1-c1n[nH]c2nc(C#N)ccc12 [Compound 277, (S)-3-(5-ethyl-2-(piperidin-3-ylamino)pyrimidin-4-yl)-1H-pyrazolo[3,4-b]pyridine-6-carbonitrile] | < 20 | – | 200 to 5000 | – | 200 to 5000 | – | 200 to 5000 | – | – | 100 to 1000 | 20 to 200 | – | – | – | – | – | – | –
9 | C=CC(=O)N1CCC(CO[C@H]2CNC[C@@H](Nc3ncc(C(F)(F)F)c(-c4c[nH]c5c(S(C)(=O)=O)cccc45)n3)C2)CC1 [Compound 264] | 20 to 200 | – | > 5000 | – | 200 to 5000 | – | > 5000 | – | – | 100 to 1000 | < 20 | – | – | – | – | – | – | –
10 | FC(F)(F)c1cnc(N[C@H]2CCCNC2)nc1-c1n[nH]c2ccccc12 [Compound 103] | < 20 | – | 200 to 5000 | – | 20 to 200 | – | 200 to 5000 | – | – | < 100 | 20 to 200 | – | – | – | – | – | – | –
11 | N#C[C@H]1CCN(C(=O)c2ccc3c(-c4nc(N[C@H]5CCCNC5)ncc4C(F)(F)F)c[nH]c3c2)C1 [Compound 293, (3S)-1-[3-[2-[[(3S)-3-piperidyl]amino]-5-(trifluoromethyl)pyrimidin-4-yl]-1H-indole-6-carbonyl] pyrrolidine-3-carbonitrile] | < 20 | – | 200 to 5000 | – | 200 to 5000 | – | 200 to 5000 | – | 200 to 5000 | 100 to 1000 | – | 20 to 200 | 200 to 5000 | 200 to 5000 | 200 to 5000 | – | – | –
12 | FC(F)n1cc(-c2ccc3c(-c4nc(N[C@H]5CCCNC5)ncc4C(F)(F)F)c[nH]c3c2)cn1 [Compound 290, 4-[6-[1-(difluoromethyl)pyrazol-4-yl]-1H-indol-3-yl]-N-[(3S)-3-piperidyl]-5-(trifluoromethyl) pyrimidin-2-amine] | 20 to 200 | – | 200 to 5000 | – | 200 to 5000 | – | 200 to 5000 | – | – | 100 to 1000 | 20 to 200 | – | – | – | – | – | – | –
13 | CCc1cnc(N[C@H]2CCCNC2)nc1-c1c[nH]c2nc(C#N)ccc12 [Compound 287, (S)-3-(5-ethyl-2-(piperidin-3-ylamino)pyrimidin-4-yl)-1H-pyrrolo[2,3-b]pyridine-6-carbonitrile] | < 20 | – | > 5000 | – | > 5000 | – | > 5000 | – | – | 100 to 1000 | 20 to 200 | – | – | – | – | – | – | –
14 | CCc1cnc(N[C@H]2CCCNC2)nc1-c1c[nH]c2cc(C#N)ccc12 [Compound 246] | < 20 | – | > 5000 | – | > 5000 | – | > 5000 | – | 200 to 5000 | – | – | – | – | – | – | 100 to 1000 | – | –
15 | O=C1CC[C@H](Nc2ncc(Cl)c(-c3c[nH]c4ccccc34)n2)CN1 [Compound 159] | 20 to 200 | – | 200 to 5000 | – | 200 to 5000 | – | 20 to 200 | – | – | 1000 to 5000 | 200 to 5000 | – | – | – | – | – | – | –
16 | FC(F)(F)c1cnc(N[C@H]2CCCNC2)nc1-c1c[nH]c2cc(-c3ccn[nH]3)ccc12 [Compound 291, N-[(3S)-3-piperidyl]-4-[6-(1H-pyrazol-3-yl)-1H-indol-3-yl]-5-(trifluoromethyl) pyrimidin-2-amine] | < 20 | – | 200 to 5000 | – | 200 to 5000 | – | 200 to 5000 | – | – | 100 to 1000 | 20 to 200 | – | – | – | – | – | – | –
17 | FC(F)(F)c1cnc(N[C@H]2CCCNC2)nc1-c1c[nH]c2c(-c3cn[nH]c3)cccc12 [Compound 170] | < 20 | – | 200 to 5000 | – | 20 to 200 | – | 200 to 5000 | – | – | < 100 | < 20 | – | – | – | – | – | – | –
18 | N#Cc1ccc2c(-c3nc(N[C@H]4CCCNC4)ncc3C(F)(F)F)c[nH]c2c1-c1ccnnc1 [Compound 261, 3-[2-[[(3S)-3-piperidyl]amino]-5-(trifluoromethyl)pyrimidin-4-yl]-7-pyridazin-4-yl-1H-indole-6-carbonitrile] | 20 to 200 | – | 200 to 5000 | – | 200 to 5000 | – | 200 to 5000 | – | – | < 100 | < 20 | – | – | – | – | – | – | –
19 | N#Cc1ccc2c(-c3nc(N[C@@H]4CNC[C@H](O)C4)ncc3C(F)(F)F)c[nH]c2c1 [Compound 370, 3-[2-[[(3S,5R)-5-hydroxy-3-piperidyl]amino]-5-(trifluoromethyl)pyrimidin-4-yl]-1H-indole-6-carbonitrile] | 20 to 200 | – | > 5000 | – | 200 to 5000 | – | > 5000 | – | 200 to 5000 | 100 to 1000 | – | – | – | – | – | – | > 5000 | > 5000
20 | CCS(=O)(=O)c1cccc2c(-c3nc(N[C@H]4CCCNC4)ncc3C(F)(F)F)c[nH]c12 [Compound 286] | < 20 | – | 200 to 5000 | – | 200 to 5000 | – | 200 to 5000 | – | – | 1000 to 5000 | 200 to 5000 | – | – | – | – | – | – | –
